From patent US5635593A (priority 1995, dated 1997)
Square brackets hold non-standard residues; d marks the D form. Peptide text beside a SMILES is read from it. Oic = O=C(O)[C@@H]1C[C@@H]2CCCC[C@@H]2N1; Hyp = O=C(O)[C@@H]1C[C@@H](O)CN1; dTic = O=C(O)[C@H]1Cc2ccccc2CN1; 2Thi = N[C@@H](Cc1cccs1)C(=O)O

What was measured:
BK1 receptor [1] = target: T1, BK1 receptor (Oryctolagus cuniculus, UniProt P48748); test: rabbit aorta in vitro, reversal of des-Arg^9 -BK contraction; set-up: on rabbit aorta (BK1 -receptor) in vitro; from tissue; host or cells: rabbit aorta; details: negative log of molar concentration causing 50% reversal of des-Arg^9 -BK (10^-7 M) contraction
T1 sequence (P48748 1-352): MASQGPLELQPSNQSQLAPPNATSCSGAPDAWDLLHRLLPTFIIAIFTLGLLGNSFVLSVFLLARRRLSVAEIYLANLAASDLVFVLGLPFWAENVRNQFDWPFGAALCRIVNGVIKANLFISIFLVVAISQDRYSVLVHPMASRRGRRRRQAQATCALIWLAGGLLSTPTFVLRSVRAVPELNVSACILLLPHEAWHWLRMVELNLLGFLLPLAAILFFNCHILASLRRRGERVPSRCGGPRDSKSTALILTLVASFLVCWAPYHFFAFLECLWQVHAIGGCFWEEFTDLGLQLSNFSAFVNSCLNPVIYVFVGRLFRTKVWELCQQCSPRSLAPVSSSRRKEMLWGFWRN
Procedure: Each antagonist was then added, in a cumulative fashion, on top of the contraction and the negative log of the molar concentration of the antagonist causing a 50% reversal (IC50) of the […] measured.

BK2 -receptor = target: T2, BK2 -receptor (Rattus norvegicus, UniProt P25023); test: rat uterus (RU) in vitro, antagonism of BK; details: against BK
T2 construct: guinea-pig ileum (GPI), rat uterus (RU) and rabbit jugular vein (RJV); from tissue; host or cells: rat uterus
T2 sequence (P25023 1-396): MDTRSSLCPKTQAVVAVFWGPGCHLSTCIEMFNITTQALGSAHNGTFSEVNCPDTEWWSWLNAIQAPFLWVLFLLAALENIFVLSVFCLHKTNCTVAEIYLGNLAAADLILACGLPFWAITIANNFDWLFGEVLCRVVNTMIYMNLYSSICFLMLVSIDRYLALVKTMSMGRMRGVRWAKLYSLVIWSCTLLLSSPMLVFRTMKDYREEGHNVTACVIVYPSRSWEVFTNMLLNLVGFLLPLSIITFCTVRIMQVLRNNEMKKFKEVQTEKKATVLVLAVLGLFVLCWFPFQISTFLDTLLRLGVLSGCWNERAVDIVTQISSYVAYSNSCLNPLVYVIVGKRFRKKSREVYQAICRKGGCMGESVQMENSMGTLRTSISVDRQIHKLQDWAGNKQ
Procedure: Thus, in vitro studies were performed on standard assay systems, namely, guinea-pig ileum (GPI), rat uterus (RU) and rabbit jugular vein (RJV). […] The potency of each compound was assessed as a pA2 value according to the method of Arunlakshana & Schild, Br. J. Pharmacol. Chemother., 14:48-58 (1959). The pA2 can be defined as the negative logarithm of the molar concentration of the antagonist in the presence of which the potency of the agonist is reduced two-fold, i.e., twice the amount of agonist is required to produce a given response in the presence of, than in the absence of, the antagonist. A high potency of antagonism is indicated by a high pA2 value. i.e., a low concentration of antagonist is effective.
The percentage recovery (% Rec) was also determined for compounds with respect to each assay.
With respect to duration of activity, it is noted that after exposure to the highest concentration of antagonist, each tissue was washed extensively and then assessed for recovery from the antagonist effect.
Potency in the rat uterus assay was assessed as described above and pA2 values determined.

BK2 receptor = target: T3, BK2 receptor (Oryctolagus cuniculus, UniProt Q28642); test: blood pressure response to BK2 agonist in LPS-pretreated rabbits; assay type: in vivo, rabbit; set-up: key to observed antagonist activity BK2, 1 / observed antagonist activity BK2, 3 / observed antagonist activity BK2, 10: +: complete blockade of the blood pressure response to the appropriate agonist; ±: partial blockade; -: no observable effect at the dose indicated; details: rabbits given LPS (10 μg) 20 hours before; for observed antagonist activity BK2, 1: 1 μg kg^-1 min^-1; for observed antagonist activity BK2, 10: 10 μg kg^-1 min^-1; for observed antagonist activity BK2, 3: 3 μg kg^-1 min^-1
T3 construct: from tissue; host or cells: whole animal (rabbit, LPS-pretreated), blood pressure response
T3 sequence (Q28642 1-367): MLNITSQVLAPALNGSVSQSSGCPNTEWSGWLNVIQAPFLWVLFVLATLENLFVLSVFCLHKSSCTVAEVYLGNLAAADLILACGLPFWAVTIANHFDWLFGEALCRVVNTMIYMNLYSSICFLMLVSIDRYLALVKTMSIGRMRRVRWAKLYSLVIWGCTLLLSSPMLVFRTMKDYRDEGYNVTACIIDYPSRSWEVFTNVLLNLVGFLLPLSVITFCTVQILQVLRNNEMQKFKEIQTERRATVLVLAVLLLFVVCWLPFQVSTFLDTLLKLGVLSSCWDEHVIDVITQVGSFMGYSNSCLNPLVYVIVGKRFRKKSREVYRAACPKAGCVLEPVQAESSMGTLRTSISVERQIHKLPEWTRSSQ
Source text: (§1) That heterodimeric constructs block the activities attributable to two different receptor populations simultaneously when administered to an intact animal has been known using a standard assay of BK2 and BK1 receptor activity (see, deBlois, Bouthillier, and Marceau, Brit. J. Pharm., 103, 1057-1066, 1991). In normal rabbits, no changes in systemic arterial blood pressure can be detected in response to challenges with BK1 receptor agonists. There is, however, a predictable and reproducible response to BK2 agonists constituatively present. After stimulation with LPS BK1 receptor activity will develop over time such that profound responses to doses of BK1 agonists that were previously inconsequential in nature are observed after a 3-4 hour period. Responses to BK2 agonists are unchanged in these animals. At this point, one can test directly the ability to block both BK1 and BK2 mediated reductions in systemic blood pressure simultaneously with a heterodimeric antagonist.
(§2) FIGS. 8a, b and c comprise actual blood pressure traces from a series of experiments designed to illustrate the ability of a representative heterodimer (CP-0364) to block both BK1 - and BK2 - mediated hypotensive responses simultaneously.
(§3) The expected antagonist activity is based on the data summarized in Tables K and L. The in vivo experimental data reported are qualitative measurements of antagonist activity at three different doses (1, 3 and 10 μg kg^-1 min^-1) in rabbits given a sub-lethal dose of LPS (10 μg), 20 hours before initiation of the experiment.

BK1 receptor [2] = target: T1, BK1 receptor; test: blood pressure response to BK1 agonist in LPS-pretreated rabbits; assay type: in vivo, rabbit; set-up: from tissue; host or cells: whole animal (rabbit, LPS-pretreated), blood pressure response; key to observed antagonist activity BK1, 1 / observed antagonist activity BK1, 3 / observed antagonist activity BK1, 10: +: complete blockade of the blood pressure response to the appropriate agonist; ±: partial blockade; -: no observable effect at the dose indicated; details: rabbits given LPS (10 μg) 20 hours before; for observed antagonist activity BK1, 1: 1 μg kg^-1 min^-1; for observed antagonist activity BK1, 3: 3 μg kg^-1 min^-1; for observed antagonist activity BK1, 10: 10 μg kg^-1 min^-1
Source text: as §1, §2, §3

Structure (SMILES)	BK1 rabbit aorta IC50 (BK1 receptor [1])	pA2 rat uterus (BK2) (BK2 -receptor)	observed antagonist activity BK2, 1 (BK2 receptor)	observed antagonist activity BK2, 10 (BK2 receptor)	observed antagonist activity BK1, 1 (BK1 receptor [2])	observed antagonist activity BK1, 3 (BK1 receptor [2])	observed antagonist activity BK1, 10 (BK1 receptor [2])	IC50 (BK1 receptor [1]) [µM]	Kb (BK2 -receptor; read-out: pA2 rat uterus (BK2) (converted)) [µM]	observed antagonist activity BK2, 3 (BK2 receptor)
N=C(N)NCCC[C@@H](N)C(=O)N[C@@H](CCCNC(=N)N)C(=O)N1CCC[C@H]1C(=O)N1C[C@H](O)C[C@H]1C(=O)NCC(=O)N[C@@H](Cc1cccs1)C(=O)N[C@@H](CO)C(=O)N1Cc2ccccc2C[C@@H]1C(=O)N1[C@H](C(=O)O)C[C@@H]2CCCC[C@@H]21 [CP-0345, D R--R--P--J--G--Thi--S--D Tic--Oic] (H-[dR]RP[Hyp]G[2Thi]S[dTic][Oic]-OH; N-terminus and C-terminus assumed)	7.1 ± 0.1	7.6 ± 0.4	-	+	-	+	+			
CC(C)C[C@H](NC(=O)[C@@H](Cc1ccccc1)NC(=O)[C@H](CSC1CC(=O)N(CCCCCCN2C(=O)CC(SC[C@H](NC(=O)[C@H](Cc3ccccc3)NC(=O)CNC(=O)[C@@H]3C[C@@H](O)CN3C(=O)[C@@H]3CCCN3C(=O)[C@H](CCCNC(=N)N)NC(=O)[C@H](N)CCCNC(=N)N)C(=O)N[C@H](Cc3ccccc3)C(=O)N[C@@H](CC(C)C)C(=O)N[C@@H](CCCNC(=N)N)C(=O)O)C2=O)C1=O)NC(=O)[C@H](Cc1ccccc1)NC(=O)CNC(=O)[C@@H]1C[C@@H](O)CN1C(=O)[C@@H]1CCCN1C(=O)[C@H](CCCNC(=N)N)NC(=O)[C@H](N)CCCNC(=N)N)C(=O)O (some centres unmarked) [CP-0273] (HELM PEPTIDE1{[dR].R.P.[Hyp].G.F.C.[dF].L.R}|PEPTIDE2{[dR].R.P.[Hyp].G.F.C.[dF].L}|CHEM1{[O=C1CC([*:1])C(=O)N1CCCCCCN1C(=O)CC([*:2])C1=O]}$PEPTIDE1,CHEM1,7:R3-1:R1|PEPTIDE2,CHEM1,7:R3-1:R2$$$V2.0; N-terminus and C-terminus assumed)								2	0.00631	
CC(C)C[C@H](NC(=O)[C@@H]1CCCN1C(=O)[C@H](CO)NC(=O)[C@H](Cc1ccccc1)NC(=O)CNC(=O)[C@@H]1C[C@@H](O)CN1C(=O)[C@@H]1CCCN1C(=O)[C@H](CCCCNC(=O)CCCCCN1C(=O)CC(SC[C@H](NC(=O)[C@H](Cc2ccccc2)NC(=O)CNC(=O)[C@@H]2C[C@@H](O)CN2C(=O)[C@@H]2CCCN2C(=O)[C@H](CCCNC(=N)N)NC(=O)[C@H](N)CCCNC(=N)N)C(=O)N[C@H](Cc2ccccc2)C(=O)N[C@@H](CC(C)C)C(=O)N[C@@H](CCCNC(=N)N)C(=O)O)C1=O)NC(=O)[C@H](N)CCCNC(=N)N)C(=O)O (some centres unmarked) [CP-0389] (HELM PEPTIDE1{[dR].R.P.[Hyp].G.F.C.[dF].L.R}|PEPTIDE2{[dR].K.P.[Hyp].G.F.S.P.L}|CHEM1{[O=C1CC([*:1])C(=O)N1CCCCCC(=O)[*:2]]}$PEPTIDE1,CHEM1,7:R3-1:R1|PEPTIDE2,CHEM1,2:R3-1:R2$$$V2.0; N-terminus and C-terminus assumed; bridges inferred)	6.5 ± 0.1	7.4 ± 0.1								
CC(C)C[C@H](NC(=O)[C@@H](Cc1ccccc1)NC(=O)[C@H](CO)NC(=O)[C@H](Cc1ccccc1)NC(=O)CNC(=O)[C@@H]1C[C@@H](O)CN1C(=O)[C@@H]1CCCN1C(=O)[C@H](CSC1CC(=O)N(CCCCCCN2C(=O)CC(SC[C@H](NC(=O)[C@H](Cc3ccccc3)NC(=O)CNC(=O)[C@@H]3C[C@@H](O)CN3C(=O)[C@@H]3CCCN3C(=O)[C@H](CCCNC(=N)N)NC(=O)[C@H](N)CCCNC(=N)N)C(=O)N[C@H](Cc3ccccc3)C(=O)N[C@@H](CC(C)C)C(=O)N[C@@H](CCCNC(=N)N)C(=O)O)C2=O)C1=O)NC(=O)[C@H](N)CCCNC(=N)N)C(=O)O (some centres unmarked) [CP-0386] (HELM PEPTIDE1{[dR].R.P.[Hyp].G.F.C.[dF].L.R}|PEPTIDE2{[dR].C.P.[Hyp].G.F.S.[dF].L}|CHEM1{[O=C1CC([*:1])C(=O)N1CCCCCCN1C(=O)CC([*:2])C1=O]}$PEPTIDE1,CHEM1,7:R3-1:R1|PEPTIDE2,CHEM1,2:R3-1:R2$$$V2.0; N-terminus and C-terminus assumed)	7.1 ± 0.2	7.6 ± 0.1	+	+	+	+	+			+
N=C(N)NCCC[C@@H](N)C(=O)N[C@@H](CCCNC(=N)N)C(=O)N1CCC[C@H]1C(=O)N1C[C@H](O)C[C@H]1C(=O)NCC(=O)N[C@@H](Cc1ccccc1)C(=O)N[C@@H](CO)C(=O)N1Cc2ccccc2C[C@@H]1C(=O)N1[C@H](C(=O)O)C[C@@H]2CCCC[C@@H]21 [CP-0267, D R--R--P--J--G--F--S--D Tic--Oic] (HELM PEPTIDE1{[dR].R.P.[Hyp].G.F.S.[O=C([C@H]1Cc2ccccc2CN1[*:1])[*:2]].[O=C(O)[C@@H]1C[C@@H]2CCCC[C@@H]2N1[*:1]]}$$$$V2.0; N-terminus and C-terminus assumed)	7.5 ± 0.2	5.7 ± 0.1	-		-	-	+			-
